Laboratory results published in patent US9738768B2, “Blowing agent composition of hydrochlorofluoroolefin” (Arkema Inc., priority 2007, dated 2017).

Experiments:
[1] = system: Salmonella typhimurium tester strains (TA1535, TA1537, TA98, TA100); assay: Ames bacterial reverse mutation assay, vapor-phase exposure by desiccator methodology; format: cell-based; conditions: for mutagenicity / toxicity of the single isomer as concluded from the Ames tests of mixture and purified material: conclusion from comparing the 71.2/28.5 trans/cis mixture with the 96.5 wt % trans material
Protocol: (§1) Toxological testing was undertaken as part of the evaluation of HCFO-1233zd as a blowing agent. Ames testing was performed on a blend of trans- and cis- HCFO-1233zd and purified trans- HCFO-1233zd. The Ames test is a study designed to determine if a material can interact with DNA and cause point mutations, i.e. to determine if a material is mutagenic. Many carcinogenic materials are also mutagenic and this assay is often used as a quick screen for potential to cause an adverse effect on genetic material. It utilizes several strains of bacteria (Salmonella typhimurium and E. coli) and is often routinely included when developing the toxicology profile of a substance. If a substance substantially increases the mutation rate in the bacterial tester strains, the study result is defined as positive and the test substance is considered to be mutagenic.
(§2) The purpose of the study was to evaluate the mutagenic potential of the test article vapor by measuring it ability to induce reverse mutations at selected loci of several stains of Salmonella typhimurium and at the tryptophan locus of Escherichia coli strains WP2 uvrA in the presence and absence of Aroclor-induced rat liver S9. The test system was exposed to the test article via desiccator methodology. For each replicate plating, the mean and standard deviation of the number of revertants per plate were calculated and reported. Negative and positive controls were also run.
(§3) For the test article to be evaluated positive, it must cause a dose-related increase in the mean revertants per plate of at least one tester strain over a minimum of two increasing concentrations of test article. Data for tester strains TA1535 and TA1537 were judged positive if the increase in mean revertants at the peak of the dose response is equal to or judged greater than 3.0-times the mean vehicle control value. Data sets for tester strains TA98, TA100 and WP2 uvrA were judged positive if the increase in mean revertants at the peak of the dose response is equal to or greater than 2.0-times the mean vehicle control value.

[2] = system: Escherichia coli strains WP2 uvrA (tryptophan locus); assay: as above; format: cell-based; conditions: E. coli WP2 uvrA
Protocol: as §1, §2, §3

Structure (SMILES) | mutagenicity / toxicity of the single isomer as concluded from the Ames tests of mixture and purified material [1] | mutagenicity / toxicity of the single isomer as concluded from the Ames tests of mixture and purified material ([1]; listed as trans isomer) | Ames test result (mutagenic response) ([2]; presence and absence of Aroclor-induced rat liver S9) | toxicity to tester strains ([2]; with and without S9) | Ames test result (mutagenic response) ([1]; Salmonella typhimurium tester strains, presence and absence of Aroclor-induced rat liver S9) | toxicity to tester strains ([1]; Salmonella typhimurium tester strains, with and without S9)
FC(F)(F)/C=C/Cl [trans-isomer of 1-chloro-3,3,3-trifluoropropene, trans-1-chloro-3,3,3-trifluoropropene] | less toxic | significantly lower genotoxicity |  |  |  | 
FC(F)(F)C=CCl [purified material, 1-chloro-3,3,3-trifluoropropene] |  |  | did not cause a positive mutagenic response | No toxicity was observed | did not cause a positive mutagenic response | No toxicity was observed
FC(F)(F)/C=C\Cl [cis-isomer, cis-1-chloro-3,3,3-trifluoropropene] | active mutagenic agent |  |  |  |  | 
